Measurements published in PMC8968710, “Structural insights into the substrate-bound condensation domains of non-ribosomal peptide synthetase AmbB” (Scientific Reports, 2022).

Assays:
full-length AmbB = target: T1, full-length AmbB (Pseudomonas aeruginosa, UniProt Q9I1H0); test: […]-alanine aminoacylation/TCA precipitation radioassay; colorimetric pyrophosphate adenylation assay; assay type: biochemical; conditions: 5 mM ATP, 5 mM MgCl2; radioassay with labelled compound
T1 construct: full length, cleavable N-terminal SUMO tag (pET28a), NiNTA purified, E. coli host
T1 sequence (Q9I1H0 whole entry): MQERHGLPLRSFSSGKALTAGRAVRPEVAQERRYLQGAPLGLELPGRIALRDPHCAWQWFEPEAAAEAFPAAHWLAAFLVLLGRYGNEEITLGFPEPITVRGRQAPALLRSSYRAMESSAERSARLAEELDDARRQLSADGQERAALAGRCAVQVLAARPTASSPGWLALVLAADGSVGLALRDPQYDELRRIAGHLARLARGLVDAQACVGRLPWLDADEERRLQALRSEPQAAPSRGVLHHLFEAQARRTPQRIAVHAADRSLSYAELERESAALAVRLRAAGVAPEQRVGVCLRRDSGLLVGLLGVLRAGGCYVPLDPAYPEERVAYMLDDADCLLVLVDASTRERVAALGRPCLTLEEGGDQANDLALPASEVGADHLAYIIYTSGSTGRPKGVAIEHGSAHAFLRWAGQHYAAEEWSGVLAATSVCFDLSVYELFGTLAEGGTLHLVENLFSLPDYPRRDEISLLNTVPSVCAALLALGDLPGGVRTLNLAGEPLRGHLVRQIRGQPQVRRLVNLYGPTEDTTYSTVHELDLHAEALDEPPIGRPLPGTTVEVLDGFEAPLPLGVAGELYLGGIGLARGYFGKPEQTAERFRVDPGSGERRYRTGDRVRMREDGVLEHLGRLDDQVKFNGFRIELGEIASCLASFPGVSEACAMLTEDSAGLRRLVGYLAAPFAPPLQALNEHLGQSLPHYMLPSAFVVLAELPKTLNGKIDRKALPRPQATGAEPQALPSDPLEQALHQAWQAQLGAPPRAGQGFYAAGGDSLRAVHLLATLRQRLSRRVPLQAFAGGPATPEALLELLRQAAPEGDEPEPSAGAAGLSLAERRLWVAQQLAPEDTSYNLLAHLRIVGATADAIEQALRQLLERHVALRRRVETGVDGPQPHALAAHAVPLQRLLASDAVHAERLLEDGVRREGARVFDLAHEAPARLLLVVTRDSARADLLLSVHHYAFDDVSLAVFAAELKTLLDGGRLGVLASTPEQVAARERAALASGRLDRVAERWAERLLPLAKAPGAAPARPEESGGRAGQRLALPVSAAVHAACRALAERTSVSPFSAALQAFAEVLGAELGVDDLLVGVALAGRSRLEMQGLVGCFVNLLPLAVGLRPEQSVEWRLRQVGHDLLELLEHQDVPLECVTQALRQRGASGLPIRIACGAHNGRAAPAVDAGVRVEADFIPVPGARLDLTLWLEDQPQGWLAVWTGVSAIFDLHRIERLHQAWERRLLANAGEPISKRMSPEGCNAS

AmbB T–C [1] = target: T2, AmbB T–C (Pseudomonas aeruginosa, UniProt Q9I1H0); test: X-ray crystallography, […] Å; LC-MS; assay type: binding; conditions: covalent; on Ser768 of T domain, L-Ala thioester near His953 of C domain; possible Ppant/Ppant-L-Ala mixture
T2 construct: T-C bidomain, residues 727-1249, GST tag cleaved (pGEX-6P-1), E. coli host, holo form made with Sfp; Ppant on Ser768
T2 sequence (Q9I1H0 727-1249): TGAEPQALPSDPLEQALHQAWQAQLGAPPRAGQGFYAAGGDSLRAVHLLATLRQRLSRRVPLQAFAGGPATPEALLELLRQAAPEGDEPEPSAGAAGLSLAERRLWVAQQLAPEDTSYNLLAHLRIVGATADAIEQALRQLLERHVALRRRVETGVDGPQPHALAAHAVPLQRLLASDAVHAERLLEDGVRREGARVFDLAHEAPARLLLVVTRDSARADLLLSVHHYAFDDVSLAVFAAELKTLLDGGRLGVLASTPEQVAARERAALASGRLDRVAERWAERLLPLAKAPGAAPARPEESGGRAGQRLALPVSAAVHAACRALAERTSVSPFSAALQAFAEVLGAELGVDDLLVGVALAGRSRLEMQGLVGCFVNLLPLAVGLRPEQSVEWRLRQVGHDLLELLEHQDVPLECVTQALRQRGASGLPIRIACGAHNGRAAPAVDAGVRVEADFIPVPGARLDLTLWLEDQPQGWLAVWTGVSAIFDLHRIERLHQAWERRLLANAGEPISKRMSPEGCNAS

AmbB T–C [2] = target: T2, AmbB T–C; test: X-ray crystallography, […] Å; LC-MS; assay type: binding; conditions: covalent; on Ser768 of T domain, arm in donor channel of C domain

C[C@H](N)C(=O)O [L-Ala]
14C-alanine aminoacylation/TCA precipitation radioassay; colorimetric pyrophosph (full-length AmbB): apo full-length AmbB, which activates L-Ala (Supplementary Fig. S4a)

C[C@H](N)C(=O)SCCNC(=O)CCNC(=O)[C@H](O)C(C)(C)COP(=O)(O)O [Ppant-L-Ala]
X-ray crystallography, 2.5 Å; LC-MS (AmbB T–C [1]): chains B and D exhibit relatively well-defined electron density for Ppant-L-Ala

CC(C)(COP(=O)(O)O)[C@@H](O)C(=O)NCCC(=O)NCCS [Ppant]
X-ray crystallography, 2.2 Å; LC-MS (AmbB T–C [2]): Structure of holo AmbB T–C with Ppant (cyan stick) covalently attached to Ser768
